Source: article PMC6724046 (Viruses, 2019)
Structures can show the parent of a compound that is named as a salt. Where two headings read alike, the source gives them in different places.

Legend:
[1] = system: CPV SD6 (New CPV-2a strain); assay: CPE-based antiviral inhibitor screening assay; format: cell-based, Canine parvovirus; conditions: for anti-CPV effect on F81 cells / Percentage CPE inhibition (mean ± s.d.): 10 μM; for anti-CPV effect on F81 cells: CPE-based screening assay; for Percentage CPE inhibition (mean ± s.d.): cells treated with drug 1 hour prior to virus infection, MOI 0.076, 40 h postinfection
[2] = 50% cytotoxicity concentration (CC50) assay; format: cell-based, Feline; conditions: cat
CPV [3] = assay: 50% antiviral efficacy concentration (EC50) assay, CPE-based; format: cell-based, Canine parvovirus; conditions: F81 cells pretreated 1 h, CPV MOI 0.076, 40 h
F81 cells [4] = assay: 50% cytotoxicity concentration (CC50) assay; format: cell-based, Feline
CPV SD6 = assay: Absolute quantitative PCR of CPV VP2 gene copies in infected F81 cells; format: cell-based, Canine parvovirus; conditions: 10 μM, 1 mL whole cell lysates, 40 hpi
CPV [5] = assay: Immunofluorescence assay (IFA) for VP2 protein in infected F81 cells; format: cell-based, Canine parvovirus; conditions: about 30 hpi
CPV [6] = assay: Time of addition study (percentage CPE inhibition); format: cell-based, Canine parvovirus; conditions: 10 μM; for Percentage CPE inhibition (mean ± s.d.): drug added 1 hour post virus infection, 40 h postinfection
[7] = system: CPV variant SD6 (New CPV-2a strain); assay: Western blot of VP2 expression, variant SD6; format: cell-based, Canine parvovirus; conditions: 10 μM, SD6, 40 hpi, normalized to 0.1% DMSO-treated group
[8] = system: CPV variant SD3 (New CPV-2b strain); assay: Western blot of VP2 expression, variant SD3; format: cell-based, Canine parvovirus; conditions: 10 μM, SD3, 40 hpi, normalized to 0.1% DMSO-treated group
[9] = system: CPV variant BJ-1 (New CPV-2a strain); assay: Western blot of VP2 expression, variant BJ-1; format: cell-based, Canine parvovirus; conditions: 10 μM, BJ-1, 40 hpi, normalized to 0.1% DMSO-treated group
F81 cells [10] = assay: Caspase-Glo 3/7 assay in F81 cells with or without CPV infection; format: cell-based, Feline; conditions: 10 μM, with or without CPV infection, 4, 8, 12 and 24 hpi
CPV enteritis = system: CPV enteritis; design: method as in earlier work; conditions: Oseltamivir-treated group; cited from earlier work
[11] = F81 cells, 40 h incubation, read-out: CC50

For `Nc1ccn(C[C@@H](CO)OCP(=O)(O)O)c(=O)n1` [Cidofovir], which “anti-CPV effect on F81 cells” value [1] is on record?
Its value is “no anti-CPV effects”.

Which CC50 at 40 h ([2]; CC50) does the source give for `Nc1nc(Cl)nc2c1ncn2[C@H]1C[C@H](O)[C@@H](CO)O1` [Cladribine] here?
Its CC50 at 40 h is 40.2 µM.

What about the EC50 (CPV [3]; Canine parvovirus) of the same molecule?
The EC50 was 0.32 µM.

For `Cc1cc(C(C#N)c2ccc(Cl)cc2)c(Cl)cc1NC(=O)c1cc(I)cc(I)c1[O-].[Na+]` (stereo not drawn) [Closantel Sodium], which “Percentage CPE inhibition (mean ± s.d.)” value [1] is on record?
Its value is 69.76 ± 6.06%.

What about the CC50 (F81 cells [4]) of the same molecule?
The CC50 was 19.1 µM.

And the EC50 (CPV [3])?
The EC50 was 6.01 µM.

What about the “CPV viral DNA copy numbers compared with the 0.1% DMSO-treated group” value (CPV SD6) of the same molecule?
The value was 24.04%.

What about the “CPV infection by IFA (VP2 staining)” value (CPV [5]; 5 μM) of the same molecule?
The value was “CPV infection could be inhibited”.

And the “CPV infection by IFA (VP2 staining)” value (CPV [5]; 10 μM)?
Its value is “Few cells were CPV-positive”.

And the “CPV infection by IFA (VP2 staining)” value (CPV [5]; 20 μM)?
The value was “Almost no green signals were detected”.

What about the “Percentage CPE inhibition (mean ± s.d.)” value (CPV [6]) of the same molecule?
The value was 58.14 ± 7.28%.

What about the “relative expression of VP2” value [7] of the same molecule?
The value was 22.50%.

And the “relative expression of VP2” value [8]?
The value was 23.85%.

And the “relative expression of VP2” value [9]?
The value was 12.83%.

What about the “pro- or antiapoptotic effect (Caspase 3/7 activity)” value (from here on “pro- or antiapoptotic effect”) (F81 cells [10]) of the same molecule?
The value was “no pro- or antiapoptotic effects”.

With `Cc1cc(C(C#N)c2ccc(Cl)cc2)c(Cl)cc1NC(=O)c1cc(I)cc(I)c1O` (stereo not drawn) [Closantel] as the molecule, how does the CC50 at 40 h [2] read?
The CC50 at 40 h was 13.7 µM.

And the EC50 (CPV [3]; Canine parvovirus)?
Its EC50 is 7.77 µM.

What about the “CPV viral DNA copy numbers compared with the 0.1% DMSO-treated group” value (CPV SD6) of the same molecule?
The value was 20.83%.

What about the “CPV infection by IFA (VP2 staining)” value (CPV [5]; 5 μM) of the same molecule?
The value was “CPV infection could be inhibited”.

And the “CPV infection by IFA (VP2 staining)” value (CPV [5]; 10 μM)?
The value was “Few cells were CPV-positive”.

And the “CPV infection by IFA (VP2 staining)” value (CPV [5]; 20 μM)?
Its value is “Almost no green signals were detected”.

And the “relative expression of VP2” value [7]?
Its value is 30.1%.

What about the “relative expression of VP2” value [8] of the same molecule?
Its value is 10.78%.

And the “relative expression of VP2” value [9]?
Its value is 14.58%.

And the “pro- or antiapoptotic effect” value (F81 cells [10])?
Its value is “no pro- or antiapoptotic effects”.

For `Nc1ccn([C@@H]2O[C@H](CO)[C@@H](O)C2(F)F)c(=O)n1` [Gemcitabine HCl], which CC50 (F81 cells [4]; [11]) is on record?
The CC50 was 142 µM.

And the EC50 (CPV [3]; Canine parvovirus)?
Its EC50 is 0.68 µM.

For `Nc1ccn([C@@H]2O[C@H](CO)[C@@H](O)C2(F)F)c(=O)n1` [Gemcitabine], which CC50 (F81 cells [4]; [11]) is on record?
Its CC50 is 40 µM.

And the EC50 (CPV [3])?
The EC50 was 0.62 µM.

And the “Percentage CPE inhibition (mean ± s.d.)” value (CPV [6])?
The value was 42.8 ± 6.13%.

For `CC(=O)Oc1ccccc1C(=O)Nc1ncc([N+](=O)[O-])s1` [Nitazoxanide], which CC50 at 40 h [2, 11] is on record?
Its CC50 at 40 h is 21 µM.

And the EC50 (CPV [3]; Canine parvovirus)?
Its EC50 is 2.71 µM.

What about the “CPV viral DNA copy numbers compared with the 0.1% DMSO-treated group” value (CPV SD6) of the same molecule?
The value was 0.07%.

And the “CPV infection by IFA (VP2 staining)” value (CPV [5]; 5 μM)?
The value was “CPV infection could be inhibited”.

And the “CPV infection by IFA (VP2 staining)” value (CPV [5]; 10 μM)?
Its value is “Few cells were CPV-positive”.

What about the “CPV infection by IFA (VP2 staining)” value (CPV [5]; 20 μM) of the same molecule?
Its value is “Almost no green signals were detected”.

What about the “anti-CPV activity by time of drug addition” value (CPV [6]; drug added 3 h postinfection) of the same molecule?
Its value is “anti-CPV activity of Nitazoxanide was observed”.

And the “pro- or antiapoptotic effect” value (F81 cells [10])?
Its value is “antiapoptotic effects were observed within 12 h”.

With `CCOC(=O)C1=C[C@@H](OC(CC)CC)[C@H](NC(C)=O)[C@@H](N)C1` [Oseltamivir] as the molecule, how does the “anti-CPV effect on F81 cells” value [1] read?
Its value is “no anti-CPV effects”.

What about the inhibition at 10 µM ([1]; Canine parvovirus, read-out: Percentage CPE inhibition (mean ± s.d.)) of the same molecule?
Its inhibition at 10 µM is 2.13 ± 2.41%.

What about the “weight versus control group” value (CPV enteritis) of the same molecule?
Its value is “significant increase of weight”.

What about the “white blood cell (WBC) count versus control group” value (CPV enteritis) of the same molecule?
Its value is “no changes”.

With `Nc1nc2[nH]cc(CCc3ccc(C(=O)N[C@@H](CCC(=O)[O-])C(=O)[O-])cc3)c2c(=O)[nH]1.Nc1nc2[nH]cc(CCc3ccc(C(=O)N[C@@H](CCC(=O)[O-])C(=O)[O-])cc3)c2c(=O)[nH]1.O.O.O.O.O.[Na+].[Na+].[Na+].[Na+]` [Pemetrexed Disodium Hydrate] as the molecule, how does the “Percentage CPE inhibition (mean ± s.d.)” value [1] read?
Its value is 26.56 ± 2.12%.

And the “Percentage CPE inhibition (mean ± s.d.)” value (CPV [6])?
The value was 30.28 ± 5.74%.

For `CN1CCC(=C2c3ccccc3CCc3sccc32)CC1.O=C(O)CC(O)C(=O)O` [Pizotifen Malate], which “Percentage CPE inhibition (mean ± s.d.)” value [1] is on record?
Its value is 29.2 ± 2.72%.

And the “Percentage CPE inhibition (mean ± s.d.)” value (CPV [6])?
Its value is 26.48 ± 2.91%.

Which results are given for `O=c1[nH]c(=O)n([C@H]2C[C@H](O)[C@@H](CO)O2)cc1C(F)(F)F` [Trifluridine]?
CC50 at 40 h [2]: > 160 µM; EC50 (CPV [3]; Canine parvovirus): 9.35 µM
